Literature values in patent US20220003741A1, “ORAL WASH FOR ORAL FLUID COLLECTION AND ANALYSIS AND METHODS OF USE THEREOF” (priority 2018, published 2022).

Experiments:
[1] = versus aripiprazole and dehydro aripiprazole
[2] = not given; remark: listed apart in the source

## O=C(O)CCCOc1ccc2c(c1)NC(=O)CC2 [OPC-3373]
[1]
  water solubility compared with parent compound aripiprazole and dehydro aripiprazole: much more water soluble

## CCCCCc1cc(O)c2c(c1)OC(C)(C)[C@@H]1CCC(C)=C[C@@H]21 [THC]
feces
  fraction of THC excreted in the feces: More than 55%
urine
  fraction of THC excreted in the urine: approximately 20%

## CN1CCCC1c1cccnc1 (centres unmarked) [nicotine]
[2]; after inhalation, crosses the blood-brain barrier
  time to reach the brain after inhalation: 10 to 20 s
[2]; in vivo
  elimination half-life of nicotine in the body: around two
